According to PubChem BioAssay (NCI):
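At the GI50, growth is halved. The concentration for full growth arrest is given as TGI.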

How the values were obtained:
Assay in all cases: NCI-60 cell line screen, 384-well format
[1] = system: 786-0 renal
[2] = system: A498 renal
[3] = system: A549 NSCLC
[4] = system: ACHN renal
[5] = system: BT-549 breast
[6] = system: CAKI-1 renal
[7] = system: CCRF-CEM leukemia
[8] = system: COLO 205 colon
[9] = system: DU-145 prostate
[10] = system: EKVX NSCLC
[11] = system: HCC-2998 colon
[12] = system: HCT-116 colon
[13] = system: HCT-15 colon
[14] = system: HL-60(TB) leukemia
[15] = system: HOP-62 NSCLC
[16] = system: HOP-92 NSCLC
[17] = system: HS 578T breast
[18] = system: HT29 colon
[19] = system: IGROV1 ovarian
[20] = system: K-562 leukemia
[21] = system: KM12 colon
[22] = system: LOX IMVI melanoma
[23] = system: M14 melanoma
[24] = system: MALME-3M melanoma
[25] = system: MCF7 breast
[26] = system: MDA-MB-435 melanoma
[27] = system: MDA-MB-468 breast
[28] = system: MOLT-4 leukemia

Compound: Cc1ccc(S(=O)(=O)Oc2ccc3sc4c(CO)ccc(NCCN(C)C)c4c(=O)c3c2)cc1
- GI50 [1]: 1.85 µM
- TGI [1]: 3.27 µM
- GI50 [2]: 1.98 µM
- TGI [2]: 3.41 µM
- GI50 [3]: 1.84 µM
- TGI [3]: 3.28 µM
- GI50 [4]: 1.89 µM
- TGI [4]: 3.33 µM
- GI50 [5]: 1.89 µM
- TGI [5]: 3.31 µM
- GI50 [6]: 1.9 µM
- TGI [6]: 3.34 µM
- GI50 [7]: 1.62 µM
- TGI [7]: 2.99 µM
- GI50 [8]: 2.14 µM
- TGI [8]: 3.6 µM
- GI50 [9]: 2.09 µM
- TGI [9]: 3.54 µM
- GI50 [10]: 1.88 µM
- TGI [10]: 3.3 µM
- GI50 [11]: 1.94 µM
- TGI [11]: 3.36 µM
- GI50 [12]: 2.14 µM
- TGI [12]: 3.62 µM
- GI50 [13]: 2.07 µM
- TGI [13]: 3.53 µM
- GI50 [14]: 1.59 µM
- TGI [14]: 2.95 µM
- GI50 [15]: 2.08 µM
- TGI [15]: 3.52 µM
- GI50 [16]: 2.12 µM
- TGI [16]: 3.57 µM
- GI50 [17]: 2.01 µM
- TGI [17]: 3.45 µM
- GI50 [18]: 1.8 µM
- TGI [18]: 3.21 µM
- GI50 [19]: 1.79 µM
- TGI [19]: 3.18 µM
- GI50 [20]: 1.91 µM
- TGI [20]: 3.33 µM
- GI50 [21]: 1.87 µM
- TGI [21]: 3.3 µM
- GI50 [22]: 1.71 µM
- TGI [22]: 3.11 µM
- GI50 [23]: 2.16 µM
- TGI [23]: 3.61 µM
- GI50 [24]: 2.15 µM
- TGI [24]: 3.61 µM
- GI50 [25]: 1.72 µM
- TGI [25]: 3.11 µM
- GI50 [26]: 2.13 µM
- TGI [26]: 3.57 µM
- GI50 [27]: 3.82 µM
- TGI [27]: 5.27 µM
- GI50 [28]: 1.79 µM
